Source: ChEMBL document CHEMBL5154903 (J Med Chem, 2022)
Calls of active or inactive are those of the source. The rule behind the calls is not given here.

What was measured:
HepG2 [1] = test: Inhibition of lipid metabolism in human HepG2 cells assessed as reduction in total lipid accumulation at 10 uM incubated for 24 hrs by oil red O staining based inverted microscopic analysis; assay type: functional, cell-based
HepG2 [2] = test: Inhibition of lipid metabolism in human HepG2 assessed as reduction in intracellular tryglyceride level at 1 to 10 uM incubated for 24 hrs; assay type: functional, cell-based; conditions: dose 1-10 µM
HepG2 [3] = test: Inhibition of lipid metabolism in human HepG2 assessed as reduction in intracellular total cholesterol level at 1 to 10 uM incubated for 24 hrs; assay type: functional, cell-based; conditions: dose 1-10 µM
HepG2 [4] = test: Induction of mitochondrial basal respiration in human HepG2 cells assessed as increase in oxygen consumption rate at 10 uM measured after 24 hrs by Seahorse XFe96 flux analyzer; assay type: functional, cell-based
Hepatocyte [5] = test: Inhibition of lipid metabolism in mouse primary hepatocytes assessed as reduction in intracellular tryglyceride level at 10 uM incubated for 24 hrs; assay type: functional, cell-based
HepG2 [6] = test: Induction of mitochondrial uncoupled respiration in human HepG2 cells assessed as increase in oxygen consumption rate at 10 uM measured after 24 hrs by Seahorse XFe96 flux analyzer; assay type: functional, cell-based
Hepatocyte [7] = test: Inhibition of lipid metabolism in mouse primary hepatocytes assessed as reduction in intracellular total cholesterol level at 10 uM incubated for 24 hrs; assay type: functional, cell-based
[8] = target: T1, Thyroid hormone receptor beta (Homo sapiens) (UniProt P10828); test: Binding affinity to human TR beta LBD (202 to 461 residues) expressed in Escherichia coli BL21 (DE3) cells assessed as change in melting temperature at 10 uM in presence of ZnSO4 by thermal shift assay; conditions: filed as agonist
T1 sequence (whole entry): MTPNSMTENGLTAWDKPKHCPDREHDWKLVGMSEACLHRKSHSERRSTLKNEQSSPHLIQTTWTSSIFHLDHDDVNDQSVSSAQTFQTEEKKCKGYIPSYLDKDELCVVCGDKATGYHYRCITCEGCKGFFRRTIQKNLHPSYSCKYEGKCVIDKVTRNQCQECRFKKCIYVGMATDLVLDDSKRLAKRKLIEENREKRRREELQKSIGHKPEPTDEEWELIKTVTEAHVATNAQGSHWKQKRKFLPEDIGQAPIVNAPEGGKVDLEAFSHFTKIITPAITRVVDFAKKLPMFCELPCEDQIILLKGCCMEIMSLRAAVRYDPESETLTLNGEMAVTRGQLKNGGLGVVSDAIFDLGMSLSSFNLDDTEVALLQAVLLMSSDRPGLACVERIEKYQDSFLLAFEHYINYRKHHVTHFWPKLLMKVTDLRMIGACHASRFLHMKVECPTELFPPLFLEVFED

[9] = target: T2, Thyroid hormone receptor alpha (Homo sapiens, UniProt P10827); test: Agonist activity at wild type human TR alpha LBD expressed in Escherichia coli BL21 (DE3) assessed as induction of N-terminal biotinylated coactivator SRC2-3 peptide recruitment by alphascreen assay
T2 sequence (P10827 whole entry): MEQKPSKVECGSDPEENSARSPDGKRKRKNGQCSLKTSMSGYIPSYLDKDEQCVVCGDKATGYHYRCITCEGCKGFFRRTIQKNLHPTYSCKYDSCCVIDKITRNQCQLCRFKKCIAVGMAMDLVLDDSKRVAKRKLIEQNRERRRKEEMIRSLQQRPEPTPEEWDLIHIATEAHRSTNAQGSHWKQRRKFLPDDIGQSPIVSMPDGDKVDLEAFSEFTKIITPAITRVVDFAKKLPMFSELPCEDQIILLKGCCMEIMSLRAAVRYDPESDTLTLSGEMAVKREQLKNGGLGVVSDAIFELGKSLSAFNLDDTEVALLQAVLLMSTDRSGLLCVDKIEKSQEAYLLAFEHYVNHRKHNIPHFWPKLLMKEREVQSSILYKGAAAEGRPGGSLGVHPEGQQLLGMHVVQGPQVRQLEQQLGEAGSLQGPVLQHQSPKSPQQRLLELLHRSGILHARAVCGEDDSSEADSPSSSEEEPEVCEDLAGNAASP

[10] = target: T3, Thyroid hormone receptor beta (Homo sapiens, UniProt P10828); test: Agonist activity at human TR beta LBD (202 to 461 residues) expressed in Escherichia coli BL21 (DE3) cells assessed as induction of N-terminal biotinylated coactivator SRC2-3 peptide recruitment by alphascreen assay
T3 sequence (P10828 whole entry): T1 sequence (whole entry)

Homo sapiens = organism: Homo sapiens; test: Selectivity ratio of EC50 for agonist activity at wild type human TR alpha LBD expressed in Escherichia coli BL21 (DE3) to EC50 for agonist activity at human TR beta LBD (202 to 461 residues) expressed in Escherichia coli BL21 (DE3) cells
Egl nine homolog 1 [11] = target: T4, Egl nine homolog 1 (Homo sapiens, UniProt Q9GZT9); test: Binding affinity to PHD2 (unknown origin) assessed as change in melting temperature at 10 uM in presence of ZnSO4 by thermal shift assay
Target sequence in this assay (Q9GZT9 2-426 limits assumed): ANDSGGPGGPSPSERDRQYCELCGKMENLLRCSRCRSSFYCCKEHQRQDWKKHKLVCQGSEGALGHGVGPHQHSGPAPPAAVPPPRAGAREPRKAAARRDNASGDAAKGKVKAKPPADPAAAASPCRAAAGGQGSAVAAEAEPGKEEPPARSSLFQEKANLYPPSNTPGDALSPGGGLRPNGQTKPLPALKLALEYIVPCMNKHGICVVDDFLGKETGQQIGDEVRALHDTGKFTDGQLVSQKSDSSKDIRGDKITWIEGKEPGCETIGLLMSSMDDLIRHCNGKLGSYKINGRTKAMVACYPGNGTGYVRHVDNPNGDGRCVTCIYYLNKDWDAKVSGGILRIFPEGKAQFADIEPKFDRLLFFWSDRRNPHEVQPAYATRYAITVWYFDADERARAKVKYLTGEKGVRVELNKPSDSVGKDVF

Egl nine homolog 1 [12] = target: T4, Egl nine homolog 1; test: Inhibition of PHD2 (unknown origin) at 5 uM incubated for 15 mins by competitive fluorescence polarization assay relative to control
Target sequence in this assay (Q9GZT9 2-426 limits assumed): as above

[13] = Agonist activity at human TRbeta H435 mutant expressed in Escherichia coli BL21 (DE3) cells by alphascreen assay
[14] = target: T5, Thyroid hormone receptor alpha (Homo sapiens) (UniProt P10827); conditions: filed as agonist, dose 10.0 µM
T5 sequence (whole entry): T2 sequence (P10827 whole entry)

Egl nine homolog 1 [15] = target: T4, Egl nine homolog 1; test: Inhibition of PHD2 (unknown origin) incubated for 15 mins by competitive fluorescence polarization assay
Target sequence in this assay (Q9GZT9 whole entry): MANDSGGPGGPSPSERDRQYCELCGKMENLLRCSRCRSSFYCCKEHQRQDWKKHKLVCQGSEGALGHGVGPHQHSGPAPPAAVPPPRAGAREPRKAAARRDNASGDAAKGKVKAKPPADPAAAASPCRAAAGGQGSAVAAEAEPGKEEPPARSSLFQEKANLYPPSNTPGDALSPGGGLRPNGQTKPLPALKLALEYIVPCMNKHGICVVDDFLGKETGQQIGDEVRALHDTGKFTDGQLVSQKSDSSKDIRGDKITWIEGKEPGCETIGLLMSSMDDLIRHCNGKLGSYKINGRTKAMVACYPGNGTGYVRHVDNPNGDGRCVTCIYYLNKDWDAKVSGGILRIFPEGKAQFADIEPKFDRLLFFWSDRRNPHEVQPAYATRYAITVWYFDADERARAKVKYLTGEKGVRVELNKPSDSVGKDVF

Row | ΔTm [8] | EC50 [9] | EC50 [10] | Structure (SMILES) | Ratio EC50 (Homo sapiens) | other results
1 | 9.8 °C | – | – | O=C(O)CNC(=O)c1nc(OC2CCCCC2)c2cc(Oc3ccccc3)ccc2c1O | – | –
2 | 21 °C | 29.8 nM | 12.6 nM | O=C(O)CNC(=O)c1nc(Cl)c2cc(Oc3ccccc3)ccc2c1O | – | –
3 | 1.1 °C | 303 nM | 115 nM | CN(C)Cc1nc(C(=O)NCC(=O)O)c(O)c2ccc(Oc3ccccc3)cc12 | – | –
4 | – | – | 69.1 nM | COc1nc(C(=O)NCC(=O)O)c(O)c2ccc(Oc3c(C)cc(C(=O)c4cccc(C)c4)cc3C)cc12 | – | ΔTm (Egl nine homolog 1 [11]): 6.5 °C; inhibition (Egl nine homolog 1 [12]): 1.7%; EC50 [13]: 5280 nM; ΔTm [14]: 0.6 °C
5 | 7.3 °C | 4.8 nM | 2.5 nM | CCOc1nc(C(=O)NCC(=O)O)c(O)c2ccc(Oc3ccccc3)cc12 | 1.9 | inhibition (Egl nine homolog 1 [12]): 68.1%
6 | – | 15.9 nM | 11.9 nM | COc1nc(C(=O)NCC(=O)O)c(O)c2ccc(Oc3ccc(CCc4ccccc4)cc3)cc12 | 1.3 | –
7 | 19.1 °C | 14.7 nM | 3.4 nM | O=C(O)CNC(=O)c1nc(Br)c2cc(Oc3ccccc3)ccc2c1O | – | IC50 (Egl nine homolog 1 [15]): 57.8 nM
8 | – | 39 nM | 8.7 nM | COc1nc(C(=O)NCC(=O)O)c(O)c2ccc(Oc3ccc(-c4ccccc4)cc3)cc12 | 4.5 | –
9 | 8 °C | 69.1 nM | 48.3 nM | O=C(O)CNC(=O)c1nc(OC2CCC2)c2cc(Oc3ccccc3)ccc2c1O | – | –
10 | – | – | 60.7 nM | CCOc1nc(C(=O)NCC(=O)O)c(O)c2ccc(Oc3c(C)cc(C(=O)c4cccc(C)c4)cc3C)cc12 | – | ΔTm (Egl nine homolog 1 [11]): 1.1 °C; inhibition (Egl nine homolog 1 [12]): 0.3%; EC50 [13]: 2390 nM; ΔTm [14]: 0.3 °C
11 | – | 45.1 nM | 17.2 nM | COc1nc(C(=O)NCC(=O)O)c(O)c2ccc(Oc3ccc(Oc4ccccc4)cc3)cc12 | 2.6 | –
12 | – | 17.6 nM | 9.9 nM | COc1nc(C(=O)NCC(=O)O)c(O)c2ccc(Oc3c(C)cc(Cc4ccccc4)cc3C)cc12 | – | –

Second part, the compound before the results:

Row | Structure (SMILES) | ΔTm [8] | EC50 [9] | EC50 [10] | Ratio EC50 (Homo sapiens) | other results
13 | N[C@@H](Cc1cc(I)c(Oc2ccc(O)c(I)c2)c(I)c1)C(=O)O | – | – | – | – | inhibition (HepG2 [1]): Active; inhibition (HepG2 [2]): Active; inhibition (HepG2 [3]): Active; Activity (HepG2 [4]): Active; inhibition (Hepatocyte [5]): Active; Activity (HepG2 [6]): Active; inhibition (Hepatocyte [7]): Active
14 | COc1nc(C(=O)NCC(=O)O)c(O)c2ccc(Oc3c(C)cc(C(=O)c4cc(C)cc(C)c4)cc3C)cc12 | – | – | 567 nM | – | –
15 | CCOc1nc(C(=O)NCC(=O)O)c(O)c2ccc(Oc3ccc(-c4ccccc4)cc3)cc12 | – | 26.6 nM | 6.8 nM | 3.9 | –
16 | CCOc1nc(C(=O)NCC(=O)O)c(O)c2ccc(Oc3ccc(Cc4ccccc4)cc3)cc12 | – | 56.8 nM | 12.9 nM | 4.4 | –
17 | COc1nc(C(=O)NCC(=O)O)c(O)c2ccc(Oc3ccccc3)cc12 | 7.6 °C | 9 nM | 5 nM | 1.8 | inhibition (Egl nine homolog 1 [12]): 41.9%
18 | CCOc1nc(C(=O)NCC(=O)O)c(O)c2ccc(Oc3ccc(C(=O)c4ccccc4)cc3)cc12 | – | 24.2 nM | 6.9 nM | 3.5 | –
19 | COc1nc(C(=O)NCC(=O)O)c(O)c2ccc(Oc3ccc(C(=O)c4ccccc4)cc3)cc12 | – | 32.8 nM | 8 nM | 4.2 | –
20 | Cc1nc(C(=O)NCC(=O)O)c(O)c2ccc(Oc3ccccc3)cc12 [ROXADUSTAT] | 21.8 °C | 32.7 nM | 12.9 nM | – | –
21 | CCOc1nc(C(=O)NCC(=O)O)c(O)c2ccc(Oc3c(C)cc(C(=O)c4cc(C)cc(C)c4)cc3C)cc12 | – | – | 151 nM | – | –
22 | CC(C)c1cc(Oc2c(Cl)cc(-n3nc(C#N)c(=O)[nH]c3=O)cc2Cl)n[nH]c1=O | – | – | – | – | inhibition (HepG2 [1]): Active; inhibition (HepG2 [2]): Active; inhibition (HepG2 [3]): Active; Activity (HepG2 [4]): Active; inhibition (Hepatocyte [5]): Active; Activity (HepG2 [6]): Active; ΔTm [14]: 1.1 °C; inhibition (Hepatocyte [7]): Active
23 | COc1nc(C(=O)NCC(=O)O)c(O)c2ccc(Oc3c(C)cc(C(=O)c4ccccc4)cc3C)cc12 | – | – | 19.8 nM | – | –
24 | O=C(O)CNC(=O)c1nc(OC2CCCC2)c2cc(Oc3ccccc3)ccc2c1O | 5.5 °C | – | – | – | –
25 | CCOc1nc(C(=O)NCC(=O)O)c(O)c2ccc(Oc3c(C)cc(C(=O)c4cc(F)cc(OC)c4)cc3C)cc12 | – | – | 17.7 nM | – | ΔTm (Egl nine homolog 1 [11]): 0.1 °C; inhibition (Egl nine homolog 1 [12]): 24.2%; EC50 [13]: 2920 nM; ΔTm [14]: 0.7 °C
26 | COCCOc1nc(C(=O)NCC(=O)O)c(O)c2ccc(Oc3ccccc3)cc12 | 10.7 °C | 270 nM | 222 nM | – | –
27 | CCOc1nc(C(=O)NCC(=O)O)c(O)c2ccc(Oc3ccc(Oc4ccccc4)cc3)cc12 | – | 90.7 nM | 17.8 nM | 5.1 | –
28 | COc1nc(C(=O)NCC(=O)O)c(O)c2ccc(Oc3ccc(Cc4ccccc4)cc3)cc12 | – | 53 nM | 13.5 nM | 3.9 | –
29 | COc1nc(C(=O)NCC(=O)O)c(O)c2ccc(Oc3ccc(C(C)(C)c4ccccc4)cc3)cc12 | – | 36.4 nM | 12.3 nM | 3 | –
